Assay results taken from patent US20250122193A1, “NOVEL PYRIDOCARBAZOLIUM COMPOUNDS AND MEDICAL USES THEREOF” (MyCural Therapeutics, priority 2021, published 2025).

How the values were obtained:
[1] = test system: ODC1 expression; test: MYC target gene ODC1 expression by qPCR; assay type: cell-based; conditions: 5 μM
Procedure: FIG. 1: MYCMI-7 (Compound Example 1) inhibits the MYC:MAX interaction in cells, bind MYC in vitro, and blocks MYC function. A) Molecular structure of MYCMI-7. B-E) split Gaussia luciferase (GLuc) assay. MYC or MYCN and MAX Gluc constructs were co-transfected into HeLa cells together with a firefly luciferase vector. 24 hours post transfection cells were treated with compounds, and after another 17-24 hours cells were harvested and both GLuc and firefly luciferase activities were measured. The mean of three different experiments is shown. Treatment with: B) 5 μM of MYCMI-7, 64 μM 10058-F4 or 5 μM JQ1, respectively, C) 6.5 μM MYCMI-7 on cells expressing MYC:MAX GLuc vs. GCN4:GCN4 GLuc, D) 5 μM MYCMI-7 and 5 μM ellipticine. E) 5 μM MYCMI-7 for various time points. F) in situ proximity ligation assay (isPLA). […] MYC:GAL4 was used as negative control in the isPLA assay. G) Quantification of isPLA dots. (H) Co-immunoprecipitation (co-IP) of endogenous MYC and MAX proteins from MCF7 cells after treatment with 5 μM MYCMI-7 at various times. IP=immunoprecipitation; W=western blot. […] J) MYC target gene ODC1 expression after treatment with 5 μM MYCMI-7, quantified by qPCR. […] L) Recombinant MYC bHLHZip protein domain immobilized onto a CM5 chip was subjected to various concentrations of MYCMI-7 and the complex of MYCbHLHZip-MYCMI-7 was measured as response units by SPR. […]

[2] = molecular target: T1, MYCN (Homo sapiens, UniProt P04198); test: MYCN expression in Kelly neuroblastoma cells; assay type: cell-based
T1 construct: endogenous in cells; host or cells: Kelly neuroblastoma cells
Procedure: (§1) For western blot equal amounts of proteins ([…]) were separated on a 4-12% SDS-PAGE gel. Proteins were transferred to Immobilion-P membrane (Millipore) and detected by immunostaining and chemoluminescence (Immobilion western HRP substrate; Millipore). For immunoprecipitations 500-1000 μg of protein was used. […] Briefly, cells were crosslinked with 1% formaldehyde on ice for 6 minutes. Nuclear chromatin was sonicated on ice to fragments from 0.3 kb to 0.5 kb. Nuclear chromatin equivalent to 2.5×10^7 cells was immunoprecipitated with 2 μg antibody.

[3] = test system: Rat1 fibroblasts TGR1 (wt MYC) and HOMyc3 (reconstituted MYC); test: WST-1 growth/viability assay, MYC-expressing Rat1 fibroblasts; assay type: cell-based, rat; conditions: Rattus norvegicus, TGR1, 48 h, read-out: GI50 (average growth inhibition of 50%)
Procedure: A) Immortalized Rat1 fibroblasts with different MYC status; TGR1 (wt MYC), HO15.19 (MYC−/−) and HOMyc3 (HO15.19 with reconstituted MYC) were treated with indicated concentrations of MYCMI-7 for 48 hours. Cell proliferation/viability/metabolic activity was measured using the WST-1 assay. […] “Responsive” and “less responsive”; cell lines with positive and negative log 10 GI50 values, respectively. […] For the WST-1 assays the average of three different experiments performed in triplicates is shown.
Cell growth and viability assays: Cell growth and viability was estimated in triplicates with WST-1 (Roche) or Resazurin sodium salt (Sigma-Aldrich) assays in medium at 37° C. and 5% CO2 for 2 hours after which absorbance or fluorescence, respectively, was measured with an Omega Fluostar (BMG Labtech) in a 96 well plate format.

[4] = test system: MYC target genes CR2, RGS16, CAMKV and nucleolin; test: MYC transactivation of target genes in U2OS-MYCER cells, RT-qPCR; assay type: cell-based; conditions: 5 μM, 24 hours
Procedure: F) Inhibition of MYC transactivation of target genes CR2, RSG16, CAKMV and nucleolin as determined by RT-qPCR analysis, based on three biological experiments with three technical repeats each. U2OS-MYCER cells were treated with (MYC ON) or without (MYC OFF) 100 nM 4-hydroxy-tamoxifen (4-OHT) for 4 hours, after which DMSO or MYCMI-7 (5 μM) were added for 24 hours before total RNA was extraction. Fold changes in mRNA expression are presented relative to DMSO in MYC OFF cells after normalization to GAPDH, used as reference gene.

[5] = test system: P493-6 cells; test: cell cycle distribution by flow cytometry, P493-6; assay type: cell-based; conditions: 5 μM, 48 hours
Procedure: FIG. 4: MYCMI-7 induces apoptosis in malignant cells and growth arrest in normal cells. A) Cell cycle distribution analysis by flow cytometry of MYC-regulated P493-6 cells and normal rat embryo fibroblasts (REFs). Left panel, P493-6 synchronized in G0 by 24 hours treatment of […] doxycycline. Doxycycline was removed and the cells were harvested 48 hours after the addition of fresh medium containing DMSO or 5 μM MYCMI-7. Right panel, flow cytometry analysis of normal REFs treated with DMSO or 5 μM MYCMI-7. B) Apoptosis assay using the Cell Death Detection ELISA^plus kit. Left panel, immortalized Rat1 fibroblasts with different MYC status after 24 hours of 5 μM MYCMI-7 treatment, middle panel and right panels, normal REFs and normal peripheral blood lymphocytes, respectively, after 24 and 48 hours of 5 μM MYCMI-7 treatment. […] Viability was measured by trypan blue exclusion assay. F) Cell growth measured with Cyt62 assay of primary normal human epidermal melanocytes (NHEM) treated for 72 hours with MYCMI-7, G) Viability measured by trypan blue exclusion assay of NHEM after treatment for 72 hours with MYCMI-7.
Flow cytometry: P493-6 cells were synchronized using 1 μg/ml doxycycline. […] Cells were stained with propidium iodide (Sigma) and 1×10^4 cells per treatment were analyzed using a FACScan and CellQuestPro (Becton Dickinson). […]

[6] = test system: immortalized Rat1 fibroblasts with different MYC status; test: apoptosis assay (Cell Death Detection ELISA), Rat1 fibroblasts; assay type: cell-based, rat; conditions: 24 hours
Procedure: FIG. 4: MYCMI-7 induces apoptosis in malignant cells and growth arrest in normal cells. A) Cell cycle distribution analysis by flow cytometry of MYC-regulated P493-6 cells and normal rat embryo fibroblasts (REFs). Left panel, P493-6 synchronized in G0 by 24 hours treatment of […] doxycycline. Doxycycline was removed and the cells were harvested 48 hours after the addition of fresh medium containing DMSO or 5 μM MYCMI-7. Right panel, flow cytometry analysis of normal REFs treated with DMSO or 5 μM MYCMI-7. B) Apoptosis assay using the Cell Death Detection ELISA^plus kit. Left panel, immortalized Rat1 fibroblasts with different MYC status after 24 hours of 5 μM MYCMI-7 treatment, middle panel and right panels, normal REFs and normal peripheral blood lymphocytes, respectively, after 24 and 48 hours of 5 μM MYCMI-7 treatment. C) Measurement of viability and apoptosis by Apo-Tox Glo Triplex assay in A375 melanoma cells after 3 days of treatment with MYCMI-7 with the indicated concentrations. […] E) NHDFs treated with 3 μM MYCMI-7 for 72 hrs. Viability was measured by trypan blue exclusion assay. F) Cell growth measured with Cyt62 assay of primary normal human epidermal melanocytes (NHEM) treated for 72 hours with MYCMI-7, G) Viability measured by trypan blue exclusion assay of NHEM after treatment for 72 hours with MYCMI-7.

[7] = test system: phosphorylation of ATM; test: phospho-ATM and p53 by western blot, A375; assay type: cell-based; conditions: 5 μM, A375 cells, 3 hrs
Procedure: A) Measurement of MYC mRNA expression by RTqPCR after treatment with MYCMI-7 and different topoisomerase inhibitors at indicated concentrations. […] D) Western blot analysis of p53 and p21 expression after exposure to 5 μM MYCMI-7, ellipticine or camptothecin (CPT) in HCT116 cells. E) Western blot analysis of phospho-ATM, total ATM and p53 expression after exposure to indicated concentrations of MYCMI-7 and ellipticine in A375 cells after 3 hrs treatment.
as §1

[8] = test system: cyclin E; test: cyclin E protein expression; assay type: cell-based
Procedure: as §1

[9] = test system: NCI-60 human tumor cell lines; test: NCI-60 GI50 response versus MYC level
From the text: “Responsive” and “less responsive”; cell lines with positive and negative log 10 GI50 values, respectively. “Higher MYC” and “lower MYC”; cell lines with higher and lower MYC expression levels (MYC mRNA/protein) than average, respectively.
To investigate whether the levels of MYC expression in tumor cells correlate with growth inhibitory response to MYCMI-7, we utilized GI50 and mRNA expression data from the NCI-60 diverse human tumor cell line panel available for MYCMI-7 by the Developmental Therapeutics Program of the U.S. National Cancer Institute (DTP-NCI). […] The cell lines were categorized as “responsive” or “less responsive” to MYCMI-7 based on average logarithmic GI50 values, as well as the categories “higher MYC” and “lower MYC” based on higher or lower than average MYC mRNA and/or high protein levels.

[10] = intracerebroventricular injection, toxicity; conditions: highest concentration (10 μM)
From the text: First, we performed a pharmacokinetic study of the behavior of the molecule in mice.

T1 sequence (P04198 whole entry): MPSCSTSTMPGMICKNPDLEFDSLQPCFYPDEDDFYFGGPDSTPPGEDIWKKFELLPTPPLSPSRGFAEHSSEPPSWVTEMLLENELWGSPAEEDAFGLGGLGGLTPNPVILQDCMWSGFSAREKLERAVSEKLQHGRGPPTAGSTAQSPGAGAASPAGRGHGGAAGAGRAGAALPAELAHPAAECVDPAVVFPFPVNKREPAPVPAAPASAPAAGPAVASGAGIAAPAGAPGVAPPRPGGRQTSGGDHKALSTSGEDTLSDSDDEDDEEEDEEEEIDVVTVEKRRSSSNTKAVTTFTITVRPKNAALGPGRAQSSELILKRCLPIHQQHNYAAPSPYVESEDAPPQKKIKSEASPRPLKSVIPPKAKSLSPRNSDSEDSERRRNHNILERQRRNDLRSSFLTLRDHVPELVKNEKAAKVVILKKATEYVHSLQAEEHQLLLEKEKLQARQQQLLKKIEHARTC

CCN(CC)CC[n+]1ccc2c(C)c3[nH]c4ccccc4c3c(C)c2c1 [MYCMI-7, 2-(5,11-Dimethyl-6H-25-pyrido[4,3-b]carbazol-2-yl)-N,N-diethylethanamine bromide]
ODC1 expression [1]: reduced ODC1 expression
Expression of MYCN [2]: reduced
GI50 [3]: ~2000 nM
4-OHT-induced expression of CR2, RGS16, CAMKV and nucleolin [4]: significantly reduced
G1/S ratio compared to DMSO [5]: higher G1/S ratio
cell death (sub-G1 cells) [5]: strongly induced cell death
apoptosis ([6]; MYC knockout HO15.19, 5 μM): not
apoptosis ([6]; TGR1 and HOMyc3, 5 μM): induced apoptosis
phosphorylation of ATM and p53 expression (DDR signaling) [7]: only a slight increase
protein expression of cyclin E [8]: unaffected
correlation between response and MYC mRNA/protein levels ([9]; 60 tumor cell lines): significant correlation
cells with high MYC mRNA/protein level responsive to MYCMI-7 ([9]; NCI-60, GI50 data of DTP-NCI): 79%
cells with low MYC levels less responsive ([9]; NCI-60, GI50 data of DTP-NCI): 63%
toxicity after intracerebroventricular injection [10]: no signs of toxicity
